The compounds below were run against SHP2 (Homo sapiens (Human), UniProt Q06124) (assay: SHP2 allosteric inhibition assay (DiFMUP prompt fluorescence)). Settings: 0.25 nM SHP2 activated with 0.5 μM peptide IRS1_pY1172(dPEG8)pY1222; substrate DiFMUP.
Chain of SHP2 (Q06124 whole entry): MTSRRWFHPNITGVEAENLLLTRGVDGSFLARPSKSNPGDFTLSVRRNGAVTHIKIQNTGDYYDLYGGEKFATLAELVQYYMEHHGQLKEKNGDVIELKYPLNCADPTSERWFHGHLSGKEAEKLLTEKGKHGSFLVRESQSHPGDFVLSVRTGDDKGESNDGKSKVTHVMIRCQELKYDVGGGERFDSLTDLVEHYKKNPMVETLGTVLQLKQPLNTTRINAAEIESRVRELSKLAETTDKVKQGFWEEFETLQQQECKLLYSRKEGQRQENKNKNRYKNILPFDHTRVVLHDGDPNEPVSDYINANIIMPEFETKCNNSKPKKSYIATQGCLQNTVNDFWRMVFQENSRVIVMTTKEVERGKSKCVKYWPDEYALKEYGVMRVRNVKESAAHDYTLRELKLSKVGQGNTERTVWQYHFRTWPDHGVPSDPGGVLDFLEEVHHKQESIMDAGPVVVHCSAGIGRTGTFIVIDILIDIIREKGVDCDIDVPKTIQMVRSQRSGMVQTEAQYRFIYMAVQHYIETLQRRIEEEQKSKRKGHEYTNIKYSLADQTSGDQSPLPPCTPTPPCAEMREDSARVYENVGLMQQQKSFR
Format: biochemical
`N[C@@H]1c2ccccc2CC12CCN(c1nc3[nH]nc(N4CCCc5ncccc54)c3nc1C(F)F)CC2` [Example 140, (S)-1′-(5-(difluoromethyl)-3-(3,4-dihydro-1,5-naphthyridin-1(2H)-yl)-1H-pyrazolo[3,4-b]pyrazin-6-yl)-1,3-dihydrospiro[indene-2,4′-piperidin]-1-amine] was tested, and the IC50 was ≤ 50 nM.
With `CC(=O)N1CCN(c2n[nH]c3nc(N4CCC5(CC4)Cc4ccccc4[C@H]5N)cnc23)c2ccccc21` [Example 2, 1-(4-{6-[(3S)-3-amino-1,3-dihydrospiro[indene-2,4′-piperidin]-1′-yl]-1H-pyrazolo[3,4-b]pyrazin-3-yl}-1,2,3,4-tetrahydroquinoxalin-1-yl)ethan-1-one] the IC50 was ≤ 50 nM.
For `C[C@H](O)c1nc2c(N3CCCc4ncccc43)n[nH]c2nc1N1CCC2(CC1)Cc1ccccc1[C@H]2N` (single isomer, unassigned) [Example 142], the IC50 was ≤ 50 nM.
In the case of `Nc1nccc(Oc2cnc(N3CCC4(CC3)Oc3ccccc3[C@H]4N)cn2)c1Cl` [Example 187, (3R)-1′-{5-[(2-amino-3-chloropyridin-4-yl)oxy]pyrazin-2-yl}-3H-spiro[1-benzofuran-2,4′-piperidin]-3-amine], the IC50 is reported as ≤ 50 nM.
With `Cc1nc2c(N3CCCCC3)n[nH]c2nc1N1CCC2(CC1)Oc1ccc(F)cc1[C@H]2N` [Example 208] the IC50 was 1000 to 10000 nM.
In the case of `N[C@@H]1c2cnccc2CC12CCN(c1cnc3c(N4CCCc5ncccc54)n[nH]c3n1)CC2` [Example 50], the IC50 is reported as ≤ 50 nM.
With `Nc1nccc(Sc2cnc(N3CCC4(CC3)Cc3ccccc3[C@H]4N)cn2)c1Cl` [Example 63] the IC50 was 50 to 1000 nM.
`Cc1cc(N2CCC3(CC2)Cc2ccccc2[C@H]3N)cc(S(C)(=O)=O)c1` [Example 271, (S)-1′-(3-methyl-5-(methylsulfonyl)phenyl)-1,3-dihydrospiro[indene-2,4′-piperidin]-1-amine] was tested, and the IC50 was ≤ 50 nM.
`Cc1nccc(Sc2n[nH]c3nc(N4CCC5(CC4)Cc4ccccc4[C@H]5N)c(CO)nc23)c1Cl` [Example 89] was tested, and the IC50 was ≤ 50 nM.
In the case of `N#Cc1n[nH]c2nc(N3CCC4(CC3)Cc3ccccc3[C@H]4N)c(CO)nc12` [Example 154, 6-[(3S)-3-amino-1,3-dihydrospiro[indene-2,4′-piperidin]-1′-yl]-5-(hydroxymethyl)-1H-pyrazolo[3,4-b]pyrazine-3-carbonitrile], the IC50 is reported as ≤ 50 nM.
`N[C@H]1c2ccccc2C[C@]12CC[C@H](c1cnc3c(N4CCCc5ncccc54)n[nH]c3n1)CC2` (single isomer, unassigned) [Example 188, (1s, 1′R, 4S)-4-(3-(3,4-dihydro-1,5-naphthyridin-1(2H)-yl)-1H-pyrazolo[3,4-b]pyrazin-6-yl)-1′,3′-dihydrospiro[cyclohexane-1,2′-inden]-1′-amine] was tested, and the IC50 was > 10000 nM.
For `N[C@@H]1c2ccccc2CC12CCN(c1ncc(N3CCc4ccccc43)nc1CO)CC2` [Example 213, (S)-(3-(1-amino-1,3-dihydrospiro[indene-2,4′-piperidin]-1′-yl)-6-(indolin-1-yl)pyrazin-2-yl) methanol], the IC50 was 50 to 1000 nM.
With `Nc1nccc(Sc2ccc(N3CCC4(CC3)Cc3ccc(F)cc3[C@H]4N)cn2)c1Cl` [Example 218] the IC50 was ≤ 50 nM.
`NC1c2ccccc2CC12CCC(c1cnc(SCC3CC3)cn1)CC2` (single isomer, unassigned) [Example 283, (1s, 3'S, 4R)-4-{5-[(cyclopropylmethyl)sulfanyl]pyrazin-2-yl}-1′,3′-dihydrospiro[cyclohexane-1,2′-inden]-3′-amine] was tested, and the IC50 was > 10000 nM.
For `Cc1nc2c(N3CCCc4c3ccn(C)c4=O)n[nH]c2nc1N1CCC2(CC1)Cc1ccc(F)cc1[C@H]2N` [Example 246, 1-{6-[(3S)-3-amino-5-fluoro-1,3-dihydrospiro[indene-2,4′-piperidin]-1′-yl]-5-methyl-1H-pyrazolo[3,4-b]pyrazin-3-yl}-6-methyl-1,2,3,4,5,6-hexahydro-1,6-naphthyridin-5-one], the IC50 was > 10000 nM.

From US10934302B1, “SHP2 phosphatase inhibitors and methods of use thereof” (Relay Therapeutics, Inc., priority 2018, dated 2021)
